{"source": "patent US12042481B2", "about": "“Use of (1R,5S)-(+)-1-(naphthalen-2-yl)-3-azabicyclo[3.1.0]hexane in the treatment of conditions affected by monoamine neurotransmitters” (priority 2011, dated 2024)", "key": {"[1]": {"system": "6-OHDA-lesioned juvenile rats", "test": "Locomotor activity of juvenile rats with neonatal 6-OHDA lesions (model of ADHD)", "assay_type": "in vivo, rat", "experimental": "The behavioral effects of (1R,5S)-(+)-1-(naphthalen-2-yl)-3-azabicyclo[3.1.0]hexane were evaluated in a model of ADHD, which can be simulated in juvenile rates with neonatal 6-hydroxydopamine (6-OHDA) lesions (Davids et al., 2003). In this animal model, the NE neurons are protected from the neurotoxic effects of 6-OHDA by pretreatment with the NE transporter inhibitor desipramine, so the NE system is largely intact and can respond to NE transporter inhibitors (Davids et al., 2002). Furthermore, the 6-OHDA lesions produce learning and memory deficits in learning models including the T maze, and active and passive avoidance tasks (Shaywitz et al., 1978; Wool et al., 1987; Takasuna and Iwasaki, 1996). Performance in these learning and memory models was improved by administration of stimulants (Shaywitz et al., 1978; Wool et al., 1987). Thus, this model incorporates both hyperactivity and learning deficits found in ADHD.\nMethods of lesioning neonatal rats with 6-OHDA were carried out as detailed in Zhang et al. (2001). Briefly, on postnatal day 1 (PD 1), male Sprague-Dawley rat pups were randomly assigned to a nursing dam (10/dam). On PD 5, pups receive a subcutaneous injection of 25 mg/kg desipramine hydrochloride to protect noradrenergic neurons, followed in 45 min. by randomly assigned intracisternal injection of vehicle or 6-OHDA hydrobromide (100 μg free base) under hypothermic anesthesia. Pups were returned to nursing dams immediately after the intracranial injections. Locomotor activity was monitored individually for 90 min. in the periadolescent period on PD 25, using a microcomputer controlled infrared photobeam activity monitoring system. Locomotor activity was defined as breaking of consecutive photobeams and the activity accumulated in 5 minute bins. Behavioral testing was conducted in a novel environment (transparent plastic cages containing fresh bedding) within a grid of horizontal infrared beams. Each dose of (1R,5S)-(+)-1-(naphthalen-2-yl)-3-azabicyclo[3.1.0]hexane (1, 3 and 10 mg/kg) or methylphenidate (3 mg/kg) was dissolved in saline and given i.p. immediately prior to testing. The effects of sham versus 6-OHDA lesions on dopamine neurons in rats were quantified as decrements of DA transporters labeled with [31-1]2-(3-carbomethoxy-3-β-[4′-iodophenyl]tropane ([^3H]β-CIT), a selective DA transporter radioligand (Kula et al. 1999). Sections were preincubated (60 min., room temp [RT]) in 50 mM Tris-HCl buffer (pH 7.7) containing 120 mM NaCl and 4 mM MgCl2, then in fresh buffer (60 min) containing 2 nM [3H](3-CIT. Nonspecific binding was defined with 1 μM GBR-12909. Slides were then washed (2×5 min) in ice-cold buffer, dipped in ice-cold water, and air-dried. Radiolabeled slides and calibrated [^3H]standards were exposed to [^3H]sensitive films for 10-14 d at 4° C. Tritium-sensitive Hyperfilms were developed and fixed in Kodak D-19 for 5 min. at RT. Images were quantified with a computer-controlled MCID image analyzer. Brain regions of interest were outlined and their optical density was measured with two sections representing total binding, with two samples representing nonspecific binding. Optical density of sampled regions was measured and the amount of ligand bound within each area was calculated as nCi/mg tissue. Mean values of non-specific binding in each region were subtracted from the mean total binding to determine specific binding, which was converted into fmol/mg of radioligand bound."}, "[2]": {"target": "T1, recombinant human 5-HT transporter (Homo sapiens, UniProt P31645)", "T1 construct": "host or cells: HEK-293", "T1 sequence (P31645 whole entry)": "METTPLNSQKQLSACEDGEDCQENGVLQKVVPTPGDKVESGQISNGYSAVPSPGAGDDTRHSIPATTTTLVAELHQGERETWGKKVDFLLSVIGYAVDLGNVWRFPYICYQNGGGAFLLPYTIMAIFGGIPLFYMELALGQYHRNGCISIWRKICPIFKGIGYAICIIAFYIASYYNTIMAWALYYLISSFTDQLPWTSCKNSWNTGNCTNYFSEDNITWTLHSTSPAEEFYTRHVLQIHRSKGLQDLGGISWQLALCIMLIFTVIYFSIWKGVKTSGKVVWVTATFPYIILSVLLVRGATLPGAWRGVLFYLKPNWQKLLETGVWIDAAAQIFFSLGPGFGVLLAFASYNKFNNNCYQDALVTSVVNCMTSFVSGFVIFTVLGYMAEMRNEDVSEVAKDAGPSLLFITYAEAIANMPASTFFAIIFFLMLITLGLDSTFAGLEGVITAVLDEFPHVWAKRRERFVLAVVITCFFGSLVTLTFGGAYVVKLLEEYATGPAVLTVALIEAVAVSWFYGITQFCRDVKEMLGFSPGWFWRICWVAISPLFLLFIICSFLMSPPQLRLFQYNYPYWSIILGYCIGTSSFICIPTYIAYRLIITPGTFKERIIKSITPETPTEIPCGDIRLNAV", "test": "Inhibition of [3H]serotonin uptake in HEK-293 cells transfected with the 5-HT uptake transporter", "assay_type": "cell-based", "experimental": "(§1) The ability of (1R,5S)-(+)-1-(naphthalen-2-yl)-3-azabicyclo[3.1.0]hexane for inhibiting transport of norepinephrine (NE) and/or dopamine (DA) and/or serotonin (5-HT) was evaluated using cell lines (such as the HEK 293 cell line) that stably express recombinant human NE, DA, and 5-HT transporters, respectively. Techniques for stably transfecting mammalian cell lines with neurotransmitter transporters and measuring the effects of drugs on amine uptake have been described in the literature (e.g., Eshleman A J, J Pharmacol Exp Ther 289:877-885, 1999) and are well known to those skilled in the art\n(§2) Monoamine uptake was determined in MDCK, CHO-K1, and HEK-293 cell lines respectively transfected with NE, DA, and 5-HT uptake transporters by MDS Pharma Services (Taipei, Taiwan 112, R. O. C.). The cells were incubated in 5 mM Tris-HCl, and 7.5 mM HEPES buffer, pH 7.1, containing 120 mM NaCl, 5.4 mM KCl, 1.2 mM CaCl2, 1.2 mM MgSO4, 5 mM D-glucose, and 1 mM Ascorbic Acid. The cellular homogenates were incubated with radioligands and various concentrations of drugs for 10 minutes at 25° C. The [^3H]-radioligands incorporated into the cells were determined according to published methods using liquid scintillation counting (Perovic and Müller 1995; Eshleman et al., 1999). […]"}, "[3]": {"target": "T2, recombinant human DA transporter (Homo sapiens, UniProt Q01959)", "T2 construct": "host or cells: CHO-K1", "T2 sequence (Q01959 whole entry)": "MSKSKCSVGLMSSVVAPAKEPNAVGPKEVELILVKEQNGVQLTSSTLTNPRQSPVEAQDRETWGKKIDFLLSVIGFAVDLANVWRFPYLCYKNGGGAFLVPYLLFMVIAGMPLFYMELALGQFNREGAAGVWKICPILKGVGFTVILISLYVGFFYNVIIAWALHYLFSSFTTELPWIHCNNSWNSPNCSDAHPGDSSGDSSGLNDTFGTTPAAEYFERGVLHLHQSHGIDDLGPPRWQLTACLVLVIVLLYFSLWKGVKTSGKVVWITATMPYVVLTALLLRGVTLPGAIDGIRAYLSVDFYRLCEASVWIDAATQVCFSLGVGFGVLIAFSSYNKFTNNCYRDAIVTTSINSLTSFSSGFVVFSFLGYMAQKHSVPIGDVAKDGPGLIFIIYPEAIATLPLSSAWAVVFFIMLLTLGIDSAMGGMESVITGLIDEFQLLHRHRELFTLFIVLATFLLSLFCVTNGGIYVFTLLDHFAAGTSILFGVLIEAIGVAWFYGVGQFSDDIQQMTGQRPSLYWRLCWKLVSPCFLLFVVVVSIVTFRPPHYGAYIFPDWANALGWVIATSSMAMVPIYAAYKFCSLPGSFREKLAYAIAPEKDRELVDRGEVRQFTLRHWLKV", "test": "Inhibition of [3H]dopamine uptake in CHO-K1 cells transfected with the DA uptake transporter", "assay_type": "cell-based", "experimental": "as §1, §2"}}, "note": "pIC50: −log10 of the molar value."}
{"smiles": "c1ccc2cc([C@]34CNC[C@H]3C4)ccc2c1", "note": "[(1R,5S)-(+)-1-(naphthalen-2-yl)-3-azabicyclo[3.1.0]hexane]", "values": [{"measurement": "time over which locomotor activity was significantly reduced", "setting": "[1]; 1 mg/kg i.p., PD 25, 90 min test, vs saline", "value": 35, "unit": "min"}, {"measurement": "time over which locomotor hyperactivity was significantly attenuated", "setting": "[1]; 3 mg/kg i.p., PD 25, 90 min test", "value": 45, "unit": "min"}, {"measurement": "time over which locomotor activity was significantly reduced", "setting": "[1]; 10 mg/kg i.p., PD 25, 90 min test", "value": 90, "unit": "min"}, {"measurement": "effect on locomotor hyperactivity", "setting": "[1]; 1, 3 and 10 mg/kg i.p.", "value": "dose-dependently inhibited the locomotor hyperactivity"}, {"measurement": "locomotor activity (FIGS. 7A and 7B)", "setting": "[1]; 6-OHDA-lesioned juvenile rats at PD25, p<0.05 versus vehicle", "value": "reduced locomotor activity"}, {"measurement": "pIC50", "setting": "[2]", "value": 7.08}, {"measurement": "pIC50", "setting": "[3]", "value": 7.42}]}
